This note sets out measurements from patent US20240018110A1, “RADIOLABELED COMPOUNDS TARGETING THE PROSTATE-SPECIFIC MEMBRANE ANTIGEN” (THE UNIVERSITY OF BRITISH COLUMBIA, priority 2020, published 2024).

This series has as its system LNCaP xenograft. As to the kind of experiment: Biodistribution of 68Ga-labeled compounds in mice bearing LNCaP xenograft. Particulars: 1 h p.i. It is filed as in vivo. On the procedure: All chemicals and solvents were obtained from commercial sources, and used without further purification. PSMA-targeted peptides were synthesized using a solid phase approach on an AAPPTec (Louisville, KY) Endeavor 90 peptide synthesizer. Purification of peptides was performed on an Agilent 1260 Infinity II Preparative System equipped with a model 1260 Infinity II preparative binary pump, a model 1260 Infinity variable wavelength detector (set at 220 nm), and a 1290 Infinity II preparative open-bed fraction collector. The HPLC column used was a preparative column (Gemini, NX—C18, 5 μ, 50×30 mm) purchased from Phenomenex. The collected HPLC eluates containing the desired peptide were lyophilized using a Labconco (Kansas City, MO) FreeZone 4.5 Plus freeze-drier. Mass analyses were performed using a Waters LC-MS system with an ESI ion source. C18 Sep-Pak cartridges (1 cm^3, 50 mg) were obtained from Waters (Milford, MA). ^68Ga was eluted from an iThemba Labs (Somerset West, South Africa) generator. Radioactivity of ^68Ga-labeled peptides was measured using a Capintec (Ramsey, NJ) CRC®-25R/W dose calibrator, and the radioactivity of mouse tissues collected from biodistribution studies were counted using a Perkin Elmer (Waltham, MA) Wizard2 2480 automatic gamma counter.

For the molecule `O=C(O)CSCC(NC(=O)NC(Cc1cn(CCNC(=O)C(Cc2c3ccccc3cc3ccccc23)NC(=O)C2CCC(CNC(=O)CN3CCN(CC(=O)O)CCN(CC(=O)O)CCN(CC(=O)O)CC3)CC2)nn1)C(=O)O)C(=O)O.[68Ga]` (stereo not drawn) [^68Ga-CCZ01186], the “Biodistribution, Adrenal (Avg)” value amounted to 0.29 % ID/g; the “Biodistribution, Blood (Avg)” value is 0.72 % ID/g; the “Biodistribution, Bone (Avg)” value was 0.13 % ID/g; the “Biodistribution, Brain (Avg)” value is 0.02 % ID/g. The “Biodistribution, Fat (Avg)” value is 0.16 % ID/g; the “Biodistribution, Heart (Avg)” value is given as 0.57 % ID/g; the “Biodistribution, Intestine (Avg)” value is on record as 0.08 % ID/g; the “Biodistribution, Kidney (Avg)” value turned out to be 2.20 % ID/g. The “Biodistribution, LNCaP tumor (Avg)” value is reported as 0.89 % ID/g; the “Biodistribution, Liver (Avg)” value turned out to be 0.23 % ID/g; the “Biodistribution, Lungs (Avg)” value came out at 0.21 % ID/g; the “Biodistribution, Muscle (Avg)” value came to 0.23 % ID/g. The “Biodistribution, Pancreas (Avg)” value was determined as 0.16 % ID/g; the “Biodistribution, Salivary gland (Avg)” value is listed as 0.40 % ID/g; the “Biodistribution, Seminal (Avg)” value came to 6.65 % ID/g; the “Biodistribution, Spleen (Avg)” value is on record as 0.34 % ID/g. The “Biodistribution, Stomach (Avg)” value is listed as 0.14 % ID/g; the “Biodistribution, Testes (Avg)” value came to 0.17 % ID/g; the “Biodistribution, Thyroid (Avg)” value is recorded as 2.49 % ID/g; the “Biodistribution, Urine (Avg)” value was found to be 439.81 % ID/g.

As for `O=C(O)CCC[C@H](OC(=O)N[C@@H](CCCCNC(=O)[C@H](Cc1c2ccccc2cc2ccccc12)NC(=O)[C@H]1CC[C@H](CNC(=O)CCc2ccc(O)c(CN(CCN(CC(=O)O)Cc3cc(CCC(=O)O)ccc3O)CC(=O)O)c2)CC1)C(=O)O)C(=O)O.[68Ga]` [^68Ga-AR-113-1], the “Biodistribution, Adrenal (Avg)” value stood at 1.22 % ID/g; the “Biodistribution, Blood (Avg)” value worked out at 2.42 % ID/g; the “Biodistribution, Bone (Avg)” value was determined as 0.34 % ID/g; the “Biodistribution, Brain (Avg)” value amounted to 0.05 % ID/g. Also, the “Biodistribution, Fat (Avg)” value is 0.56 % ID/g; the “Biodistribution, Heart (Avg)” value is reported as 0.85 % ID/g; the “Biodistribution, Intestine (Avg)” value came out at 1.36 % ID/g; the “Biodistribution, Kidney (Avg)” value came to 27.16 % ID/g. For the same molecule, the “Biodistribution, LNCaP tumor (Avg)” value is 11.86 % ID/g; the “Biodistribution, Lacrimal (Avg)” value stood at 0.13 % ID/g; the “Biodistribution, Liver (Avg)” value came to 1.31 % ID/g; the “Biodistribution, Lungs (Avg)” value is reported as 1.93 % ID/g. The “Biodistribution, Muscle (Avg)” value is 0.49 % ID/g; the “Biodistribution, Pancreas (Avg)” value stood at 0.34 % ID/g; the “Biodistribution, Salivary gland (Avg)” value is 1.05 % ID/g; the “Biodistribution, Spleen (Avg)” value came to 0.61 % ID/g. Further, the “Biodistribution, Stomach (Avg)” value was 0.22 % ID/g; the “Biodistribution, Testes (Avg)” value is given as 0.79 % ID/g; the “Biodistribution, Urine (Avg)” value amounted to 237.55 % ID/g.

Take `O=C(O)CSCC(NC(=O)NC(Cc1ccc(NC(=O)C(Cc2c3ccccc3cc3ccccc23)NC(=O)C2CCC(CNC(=O)CN3CCN(CC(=O)O)CCN(CC(=O)O)CCN(CC(=O)O)CC3)CC2)cc1)C(=O)O)C(=O)O.[68Ga]` (stereo not drawn) [^68Ga-CCZ01188]: the “Biodistribution, Adrenal (Avg)” value was 0.98 % ID/g; the “Biodistribution, Blood (Avg)” value is reported as 3.91 % ID/g; the “Biodistribution, Bone (Avg)” value turned out to be 0.23 % ID/g; the “Biodistribution, Brain (Avg)” value was determined as 0.07 % ID/g. Besides, the “Biodistribution, Fat (Avg)” value is recorded as 0.62 % ID/g; the “Biodistribution, Heart (Avg)” value is 1.03 % ID/g; the “Biodistribution, Intestine (Avg)” value came to 0.56 % ID/g; the “Biodistribution, Kidney (Avg)” value turned out to be 4.02 % ID/g. The “Biodistribution, LNCaP tumor (Avg)” value is on record as 1.43 % ID/g; the “Biodistribution, Liver (Avg)” value was found to be 0.81 % ID/g; the “Biodistribution, Lungs (Avg)” value came out at 2.15 % ID/g; the “Biodistribution, Muscle (Avg)” value is reported as 0.41 % ID/g. Besides, the “Biodistribution, Pancreas (Avg)” value is recorded as 0.38 % ID/g; the “Biodistribution, Salivary gland (Avg)” value was determined as 1.56 % ID/g; the “Biodistribution, Seminal (Avg)” value is recorded as 0.85 % ID/g; the “Biodistribution, Spleen (Avg)” value was determined as 0.61 % ID/g. For the same molecule, the “Biodistribution, Stomach (Avg)” value is given as 0.19 % ID/g; the “Biodistribution, Testes (Avg)” value is reported as 0.82 % ID/g; the “Biodistribution, Thyroid (Avg)” value came out at 0.67 % ID/g; the “Biodistribution, Urine (Avg)” value was determined as 367.12 % ID/g.

Take `O=C(O)CSCC(NC(=O)NC(CNC(=O)CNC(=O)C(Cc1c2ccccc2cc2ccccc12)NC(=O)C1CCC(CNC(=O)CN2CCN(CC(=O)O)CCN(CC(=O)O)CCN(CC(=O)O)CC2)CC1)C(=O)O)C(=O)O.[68Ga]` (stereo not drawn) [68Ga-CCZ01194]: the “Biodistribution, Adrenal (Avg)” value was found to be 0.65 % ID/g; the “Biodistribution, Blood (Avg)” value is on record as 0.98 % ID/g; the “Biodistribution, Bone (Avg)” value is 0.14 % ID/g; the “Biodistribution, Brain (Avg)” value amounted to 0.03 % ID/g. In addition, the “Biodistribution, Fat (Avg)” value was 0.27 % ID/g; the “Biodistribution, Heart (Avg)” value worked out at 0.27 % ID/g; the “Biodistribution, Intestine (Avg)” value came out at 0.79 % ID/g; the “Biodistribution, Kidney (Avg)” value is 7.33 % ID/g. Besides, the “Biodistribution, LNCaP tumor (Avg)” value is given as 9.12 % ID/g; the “Biodistribution, Liver (Avg)” value is recorded as 0.35 % ID/g; the “Biodistribution, Lungs (Avg)” value amounted to 0.70 % ID/g; the “Biodistribution, Muscle (Avg)” value is reported as 0.14 % ID/g. Moreover, the “Biodistribution, Pancreas (Avg)” value was 0.15 % ID/g; the “Biodistribution, Salivary gland (Avg)” value was found to be 0.34 % ID/g; the “Biodistribution, Seminal (Avg)” value turned out to be 0.13 % ID/g; the “Biodistribution, Spleen (Avg)” value came out at 0.24 % ID/g. In addition, the “Biodistribution, Stomach (Avg)” value is 0.09 % ID/g; the “Biodistribution, Testes (Avg)” value stood at 0.23 % ID/g; the “Biodistribution, Thyroid (Avg)” value stood at 0.29 % ID/g; the “Biodistribution, Urine (Avg)” value turned out to be 311.63 % ID/g.

Take `O=C(O)CCCC(NC(=O)NC(COCCNC(=O)C(Cc1c2ccccc2cc2ccccc12)NC(=O)C1CCC(CNC(=O)CN2CCN(CC(=O)O)CCN(CC(=O)O)CCN(CC(=O)O)CC2)CC1)C(=O)O)C(=O)O.[68Ga]` (stereo not drawn) [^68Ga-CCZ02011]: the “Biodistribution, Adrenal (Avg)” value worked out at 0.36 % ID/g; the “Biodistribution, Blood (Avg)” value is 0.58 % ID/g; the “Biodistribution, Bone (Avg)” value worked out at 0.15 % ID/g; the “Biodistribution, Brain (Avg)” value stood at 0.02 % ID/g. For the same molecule, the “Biodistribution, Fat (Avg)” value is reported as 0.12 % ID/g; the “Biodistribution, Heart (Avg)” value is recorded as 0.18 % ID/g; the “Biodistribution, Intestine (Avg)” value is 0.40 % ID/g; the “Biodistribution, Kidney (Avg)” value came out at 4.10 % ID/g. The “Biodistribution, LNCaP tumor (Avg)” value came out at 14.08 % ID/g; the “Biodistribution, Lacrimal (Avg)” value turned out to be 0.33 % ID/g; the “Biodistribution, Liver (Avg)” value is listed as 0.27 % ID/g; the “Biodistribution, Lungs (Avg)” value stood at 0.43 % ID/g. Further, the “Biodistribution, Muscle (Avg)” value stood at 0.15 % ID/g; the “Biodistribution, Pancreas (Avg)” value came to 0.22 % ID/g; the “Biodistribution, Salivary gland (Avg)” value was 0.27 % ID/g; the “Biodistribution, Seminal (Avg)” value is reported as 11.24 % ID/g. The “Biodistribution, Spleen (Avg)” value is 0.23 % ID/g; the “Biodistribution, Stomach (Avg)” value worked out at 0.07 % ID/g; the “Biodistribution, Testes (Avg)” value was 0.51 % ID/g; the “Biodistribution, Thyroid (Avg)” value turned out to be 0.16 % ID/g. In addition, the “Biodistribution, Urine (Avg)” value came out at 343.93 % ID/g.

For `O=C(O)CCCC(NC(=O)NC(CCCONC(=O)C(Cc1c2ccccc2cc2ccccc12)NC(=O)C1CCC(CNC(=O)CN2CCN(CC(=O)O)CCN(CC(=O)O)CCN(CC(=O)O)CC2)CC1)C(=O)O)C(=O)O.[68Ga]` (stereo not drawn) [^68Ga-CCZ02018], the “Biodistribution, Adrenal (Avg)” value was 0.53 % ID/g; the “Biodistribution, Blood (Avg)” value was found to be 0.67 % ID/g; the “Biodistribution, Bone (Avg)” value came out at 0.13 % ID/g; the “Biodistribution, Brain (Avg)” value came to 0.03 % ID/g. The “Biodistribution, Fat (Avg)” value is 0.17 % ID/g; the “Biodistribution, Heart (Avg)” value is 0.18 % ID/g; the “Biodistribution, Intestine (Avg)” value amounted to 0.25 % ID/g; the “Biodistribution, Kidney (Avg)” value was 6.91 % ID/g. Also, the “Biodistribution, LNCaP tumor (Avg)” value was determined as 18.88 % ID/g; the “Biodistribution, Liver (Avg)” value is 0.21 % ID/g; the “Biodistribution, Lungs (Avg)” value was found to be 0.58 % ID/g; the “Biodistribution, Muscle (Avg)” value was found to be 0.10 % ID/g. The “Biodistribution, Pancreas (Avg)” value amounted to 0.13 % ID/g; the “Biodistribution, Salivary gland (Avg)” value is 0.22 % ID/g; the “Biodistribution, Seminal (Avg)” value was found to be 0.27 % ID/g; the “Biodistribution, Spleen (Avg)” value was determined as 0.24 % ID/g. Besides, the “Biodistribution, Stomach (Avg)” value is recorded as 0.07 % ID/g; the “Biodistribution, Testes (Avg)” value is on record as 0.22 % ID/g; the “Biodistribution, Thyroid (Avg)” value amounted to 0.20 % ID/g; the “Biodistribution, Urine (Avg)” value was 613.72 % ID/g.
